What was measured:
Type in all cases: in vivo, English bulldog
[1] = tested on: English bulldogs; test: Upper airway dilator muscle (GH, SH) EMG activity during wakefulness after i.v. serotonin antagonist; conditions: mean±SE; for GH peak amplitude, mean: baseline 11.86±2.17; for SH amplitude: baseline 14.41±3.93
Description: Following the baseline sleep study to document sleep-disordered breathing, each dog underwent a surgical procedure for the implantation of recording electrodes. For this procedure, dogs were premedicated with 5 to 10 micrograms per kilogram body weight atropine sulfate intramuscularly. In the cases of two bulldogs experiencing severe sleep-disordered breathing, intubation and general anesthesia were thought to pose a significant risk for postoperative respiratory failure. These two dogs were therefore sedated only using 20 to 40 micrograms per kilogram body weight oxymorphone administered intramuscularly. The six remaining dogs were anesthetized initially with sodium thiopental (15 to 30 milligrams per kilogram body weight) administered intravenously. The dogs were intubated and maintained under general anesthesia using 0.5 to 2.5% (v/v) inhalational halothane throughout the procedure.
Recording electrodes were implanted for the study of diaphragm and upper airway dilator muscle activity. Electrodes were fashioned from 0.7 millimeter multi-stranded Teflon-coated stainless steel wire. The insulation was stripped from 5 to 8 millimeters at the proximal tip. The proximal tip of each electrode was implanted transcutaneously into the relevant musculature using methods described by Basmajian et al. (1962, J. Appl. Physiol. 17:839).
(§1) Five diaphragm electromyographic (DIA EMG) electrodes were implanted in the costal musculature of the right hemidiaphragm 7 to 9 centimeters lateral to the xyphoid process. Three other electrodes were embedded into the right sternohyoid (SH) muscle and, three more were embedded into the right geniohyoid (GH) muscle. Both SH and GH muscles are readily palpable in the English bulldog.
Two ground electrodes were embedded transcutaneously contacting both the occipital skull and dorsal neck musculature. Distal tips of all electrodes were soldered onto a 25-pin Winchester-type connector. Electrodes and the connector were secured to each dog with elastic adhesive dressings over the torso and neck.
(§2) All studies were conducted using an unrestrained dog, either housed within a well-ventilated, electronically shielded, clear Plexiglass™ recording chamber or seated atop a table in the recording room. In either case, an investigator remained with the dog throughout the study to observe the dog's head and neck movements and to document the behavioral state of the dog. EMG signals were band-pass filtered at 50 to 2,000 Hertz. DIA EMG signals were passed through an analog EKG blanker (CWE EKG blanker; CWE, Ardmore, Pa.) and then through a third-order Paynter filter (CWE MA) having a 100-millisecond time constant to obtain a moving average of the DIA EMG. Signals of the SH and GH EMG were also passed through Paynter filters with the same time constants (100 ms) to obtain moving averages of these signals. Oxyhemoglobin saturation was measured continuously with a Biox IIA oximeter attached to the dog's pinna. Signals for the GH EMG, GH moving average (MA), SH EMG, SH MA, DIA EMG, DIA MA, and oxyhemoglobin saturations were recorded polygraphically (10 millimeters per second) using a chart recorder with high frequency response, i.e., as much as 10 kHz (Gould ES1000; Gould Instruments, Cleveland, Ohio). Signals were also recorded on analog tape using an eight-channel FM tape recorder (A. R. Vetter, Roseburg, Pa.).
The effects of serotonin antagonists on upper airway dilator muscle activity and breathing during wakefulness were assessed. Serotonin antagonists which were administered were methysergide maleate and ritanserin.
Ritanserin is a relatively selective serotonin antagonist at types 1C and 2 serotonin receptors (Devaud et al., 1992, J. Neurochem. 59:1459-1466). Ritanserin was selected for study on the basis that the IC and 2 subtypes of serotonin receptors appear to be involves in serotonin facilitation of hypoglossal motoneurons in vivo (Kugin et al., supra). […]

[2] = tested on: English bulldogs; test: Diaphragm (DIA) EMG activity during wakefulness after i.v. serotonin antagonist
Method: as §1, §2
(§3) After obtaining baseline recordings of all variables for at least 5 minutes during quiet wakefulness and after obtaining recordings during the 5 minutes following administration of a saline control injection, 0.25 to 0.50 milligrams per kilogram body weight of one of the serotonin antagonists was administered to each dog through a peripheral intravenous line. All variables were continuously recorded. Injections were repeated every 6 minutes either until a total dose of 1 milligram per kilogram body weight had been administered or until the oxygen saturations fell below 85%. These limits were deemed to ensure the dogs' safety, based on an initial study using one dog. This dog, EBD-G was hypoxic at baseline and developed profound reductions in UAW muscle activity with desaturations to 75% after a total dose of 1.0 milligram per kilogram body weight of methysergide. The interval between repeated injections was selected to be 6 minutes to allow for 5 minute sampling periods for each dose. The duration of action of serotonin antagonists is known to be greater than 60 minutes (Bredberg et al., supra; Devaud et al., supra).
The effects of serotonin antagonists on diaphragm activity were similarly analyzed. Briefly, the measures of diaphragm activity were the peak amplitudes for all respiratory bursts in each condition. […] Acquisition of these measures has also been previously described (Hendricks et al., 1991, Am. Rev. Respir. Dis. 144:1112-1120). Mean values across all respiratory bursts of a 5 minute sample period were determined for each dog, and these values were used to perform repeated measures of ANOVA comparing baseline values with post-administration values.

[3] = tested on: English bulldogs; test: Waking oxyhemoglobin saturation (SaO2) after i.v. serotonin antagonist; conditions: for mean SaO2: mean±SE
Method: as §2, §3
The effects of ritanserin and methysergide on oxyhemoglobin saturations were analyzed in a similar fashion; i.e., repeated measures of ANOVA for baseline and drug dose conditions. Oxyhemoglobin saturation was measured every 10 scans.

[4] = tested on: English bulldogs; test: Respiratory timing from DIA moving average signals
Description: Respiratory timing variables were obtained from the DIA MA signals, using methods previously described to determine inspiratory time (T1), expiratory time (TE), total time of a respiratory burst (Ttot), and the duty cycle ratio (T1/Ttot) (Hendricks et al., 1987, J. Appl. Physiol. 63:1344-1350; Hendricks et al., 1991, Am Rev. Respir. Dis. 144:1112-1120).

[5] = tested on: English bulldogs; test: Direct observation of behavior after serotonin antagonists; conditions: i.v. during quiet wakefulness; several dogs
Description: The behavior of the dogs was observed directly throughout this study and for several hours following the last injection by one investigator seated adjacent the dog. The investigator documented both behavioral state and movement and helped the dog to maintain wakefulness throughout the study.

[6] = tested on: English bulldogs; test: Cine CT imaging of the upper airway before and after ritanserin; conditions: 0.5 mg/kg i.v.
Method: The effect of administering a serotonin antagonist on upper airway dimensions during a respiratory cycle was determined by performing cinematic computed tomography (cine CT) on dogs before and after administration of the antagonists. Cine CT allows both high spatial and temporal resolution (Shepard et al., 1990, In: Proceedings of the First International Symposium on Sleep and Respiration, New York, 273-282; Schwab et al., 1993, Am. Rev. Respir. Dis. 148:1385-1400), and has been used to define dynamic changes in the upper airways of humans in relation to the phases of the respiratory cycle (Schwab et al., 1993, Am. Rev. Respir. Dis. 148:1385-1400; Galvin et al., 1989, Radiology 171:775-778; Schwab et al., 1993, J. Appl. Physiol. 74:1504-1514). An Imatron C-100 ultrafast scanner (Imatron Inc., South San Francisco, Calif.) was used for these studies.
Dogs were studied during wakefulness. All dogs were trained prior to the study to lie quietly on a table similar to the CT scanner table for periods as long as one hour. However, to maintain constant head and body position throughout the study, each dog wore a nylon vest secured to the table at the shoulder and hips. Lateral radiographs of the neck were performed initially so that the head and neck were positioned with a 110 to 130 degree angle between the hard palate and the upper trachea.
Once the angle was confirmed, the head was gently secured in place to the scanner table with elastic dressing tape. With the dog comfortably secured in place, a scout filming of the airways was performed with 40 consecutive 3-millimeter-thick coronal slices imaged from the region of the nasopharynx through the larynx. For each dog, these images were used to select four standard areas of study for all dogs. […] For each dog, the areas which were imaged included the posterior nasopharynx (at the level of pterygoid fossa in the dog), the retropalatal high area (at the midhyoid arch level), the retropalatal low area (at the level of the anterior hyoid bone), and the larynx.
Prior to imaging, each dog was connected as described above for monitoring geniohyoid, sternohyoid, and diaphragm muscle activity, respiratory inductive plethysmography, and oxyhemoglobin saturation. During quiet breathing, 20 consecutive images at 0.4-second intervals were obtained simultaneously at each of the four described levels. This program allowed for the description of the dynamic changes in airway dimensions over four to seven breaths at all four anatomic levels simultaneously. The image acquisition time for each radiograph was 50 milliseconds, and images were 3 millimeters thick. Imaging studies were rejected and repeated if the respiratory activity was interrupted at any time during imaging by swallowing, sighing (defined for this study as a diaphragm burst 200% greater in amplitude than the previous 10 bursts), licking, or panting, the latter being defined as a respiratory frequency of more than 60 diaphragmatic respiratory bursts per minute. Cine CT scanner impulses marking the timing for all images were transmitted to the polygraph with continuing signals of all objective measures, i.e., GH, SH, and DIA EMG activity, oxyhemoglobin saturation, and chest wall plethysmography. […]
This study quantified the effects of the serotonin antagonist, ritanserin, on the cross-sectional area of the upper airway and its dynamic changes during the respiratory cycle. […]

[7] = 0.50 mg/kg i.v., baseline ritanserin 14.41±3.93, methysergide 5.75±0.18
[8] = 0.50 mg/kg i.v., mean±SE, baseline ritanserin 17.63±2.79, methysergide 7.07±2.37
[9] = 0.50 mg/kg i.v., baseline ritanserin 92.1±0.6, methysergide 90.3±2.7

## CC[C@@H](CO)NC(=O)[C@@H]1C=C2c3cccc4c3c(cn4C)C[C@H]2N(C)C1 [methysergide]
[1]; [7]
  SH peak amplitude: 3.83±0.28 arbitrary units
[1]; 1.00 mg/kg i.v. cumulative, four dogs, baseline 5.75±0.18
  SH peak amplitude: 2.77±0.38 arbitrary units
[2]; 0.50 mg/kg i.v.
  DIA peak amplitude as percentage of the baseline value: 67.7%
[2]; [8]
  DIA peak amplitude, mean: 4.74±0.25 arbitrary units
[2]; 1.0 mg/kg i.v. cumulative
  DIA peak amplitude as percentage of the baseline value: 39.6%
[2]; 1.0 mg/kg i.v. cumulative, mean±SE, three dogs, baseline 7.07±2.37
  DIA peak amplitude, mean: 2.80±1.48 arbitrary units
[3]; [9]
  mean SaO2: 86.6±2.0%
[3]; 1.0 mg/kg i.v. cumulative, baseline 90.3±2.7
  mean SaO2: 85.6±0.9%
[3]; total dose 1.0 mg/kg i.v., single dog, initial study
  oxygen desaturations in dog EBD-G (hypoxic at baseline): 75%
[4]; 0.50 mg/kg, three dogs
  TE reduced by: 33.8%
  TI reduced by: 12.7%
  Ttot reduced by: 23.9%
[5]
  behavior (head and neck movements, alertness): increase in staring behaviors

## Cc1nc2sccn2c(=O)c1CCN1CCC(=C(c2ccc(F)cc2)c2ccc(F)cc2)CC1 [ritanserin]
[1]; 0.25 mg/kg i.v., four dogs
  GH peak amplitude, mean: 6.42±1.12 arbitrary units
[1]; 0.25 mg/kg i.v.
  SH amplitude: 10.90±2.99 arbitrary units
[1]; 0.25 mg/kg i.v., quiet waking
  percent suppression of GH activity: 40.0±6.5%
[1]; 0.50 mg/kg i.v. cumulative, four dogs
  GH peak amplitude, mean: 7.23±2.01 arbitrary units
[1]; [7]
  SH peak amplitude: 9.08±1.32 arbitrary units
[1]; 0.75 mg/kg i.v. cumulative, four dogs
  GH peak amplitude, mean: 7.44±2.48 arbitrary units
[1]; 0.75 mg/kg i.v. cumulative
  SH amplitude: 7.43±0.55 arbitrary units
[2]; 0.25 mg/kg i.v.
  DIA peak amplitude as percentage of the baseline value: 85.76±3.30%
[2]; 0.25 mg/kg i.v., mean±SE, six dogs, baseline 17.63±2.79
  DIA peak amplitude, mean: 15.03±2.45 arbitrary units
[2]; 0.25 mg/kg i.v., mean±SE, quiet waking, dogs with GH data
  percent suppression of DIA activity: 17.0±3.6%
[2]; 0.50 mg/kg i.v.
  DIA peak amplitude as percentage of the baseline value: 95.22±5.81%
[2]; [8]
  DIA peak amplitude, mean: 16.12±2.30 arbitrary units
[2]; 0.75 mg/kg i.v. cumulative
  DIA peak amplitude as percentage of the baseline value: 87.33±5.18%
[2]; 0.75 mg/kg i.v. cumulative, mean±SE, six dogs, baseline 17.63±2.79
  DIA peak amplitude, mean: 14.98±2.06 arbitrary units
[3]; 0.25 mg/kg i.v., baseline 92.1±0.6
  mean SaO2: 88.5±0.8%
[3]; [9]
  mean SaO2: 87.6±1.2%
[3]; 0.75 mg/kg i.v. cumulative, baseline 92.1±0.6
  mean SaO2: 88.6±0.5%
[4]; 0.25 mg/kg, mean±SE, six dogs, baseline 0.50±0.02, NS
  TI/Ttot (duty cycle ratio): 0.52 ± 0.02
[4]; 0.25 mg/kg, mean±SE, six dogs, baseline 1.31±0.20, p 0.02
  TI (inspiratory time): 1.03 ± 0.17 s
[4]; 0.25 mg/kg, mean±SE, six dogs, baseline 1.32±0.20, p 0.04
  TE (expiratory time): 1.00 ± 0.23 s
[4]; 0.25 mg/kg, mean±SE, six dogs, baseline 2.60±0.30, p 0.03
  Ttot (total time of a respiratory burst): 2.02 ± 0.30 s
[6]; mean values for the two dogs
  GH peak amplitude suppressed by: 51.1±1.8%
[6]; two dogs
  chest wall respiratory movement amplitude reduced by: 59.9%
  upper airway parameters during expiration: no significant changes
[6]; two dogs, before 92.8±1.8
  mean SaO2 after administration: 86.2±4.7%
[6]; two dogs, individual ANOVAs p<0.01
  airway CSA during both stages of inspiration: significant reduction

Source: US6387907B1, “Use of serotonin agonists to alleviate disordered breathing episodes in a mammal” (The Trustees of the University of Pennsylvania, priority 1997, dated 2002)
